Reference: the supplement of paper PMC10307832

Assays:
Experiment in all cases: relative viability (nuclei count vs DMSO), 5 days (fraction); higher = more cells survive
Apatinib + Foretinib = compound: N#CC1(c2ccc(NC(=O)c3cccnc3NCc3ccncc3)cc2)CCCC1 [Apatinib] + COc1cc2c(Oc3ccc(NC(=O)C4(C(=O)Nc5ccc(F)cc5)CC4)cc3F)ccnc2cc1OCCCN1CCOCC1 [Foretinib] (partner 0.25 µM)
Summary of the method: (§1)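 After 5 days of treatment, lung cancer cells in 1536-well plates were fixed and stained in a single step (final 0.05% Triton X-100, 1% formaldehyde, 1 ug/ml Hoechst) and their nuclei counted on 4× images. Treatment had been applied by pin tool the day after seeding as one drug alone or as a fixed anchor-drug dose with five library-drug doses (not always all listed) in √10 steps. Relative viability is the nuclei count of treated wells divided by that of vehicle wells, and values are medians of duplicate plates.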

Metformin + Alpelisib = compound: CN(C)C(=N)NC(=N)N [Metformin] + Cc1nc(NC(=O)N2CCC[C@H]2C(N)=O)sc1-c1ccnc(C(C)(C)C(F)(F)F)c1 [Alpelisib] (partner 2 µM)
Summary of the method: as §1

Metformin + Dasatinib = compound: CN(C)C(=N)NC(=N)N [Metformin] + Cc1nc(Nc2ncc(C(=O)Nc3c(C)cccc3Cl)s2)cc(N2CCN(CCO)CC2)n1 [Dasatinib] (partner 0.075 µM)
Summary of the method: as §1

Apatinib + Crizotinib = compound: N#CC1(c2ccc(NC(=O)c3cccnc3NCc3ccncc3)cc2)CCCC1 [Apatinib] + C[C@@H](Oc1cc(-c2cnn(C3CCNCC3)c2)cnc1N)c1c(Cl)ccc(F)c1Cl [Crizotinib] (partner 1 µM)
Summary of the method: as §1

| Cell Line | relative viability (Apatinib + Foretinib; first compound 0.08 µM) | relative viability (Apatinib + Foretinib; first compound 0.253 µM) | relative viability (Apatinib + Foretinib; first compound 0.8 µM) | relative viability (Apatinib + Foretinib; first compound 2.53 µM) | relative viability (Apatinib + Foretinib; first compound 8 µM) | relative viability (Metformin + Alpelisib; first compound 10 µM) | relative viability (Metformin + Alpelisib; first compound 31.62 µM) | relative viability (Metformin + Alpelisib; first compound 100 µM) | relative viability (Metformin + Alpelisib; first compound 316.23 µM) | relative viability (Metformin + Alpelisib; first compound 1000 µM) | relative viability (Metformin + Dasatinib; first compound 10 µM) | relative viability (Metformin + Dasatinib; first compound 100 µM) | relative viability (Metformin + Dasatinib; first compound 316.23 µM) | relative viability (Metformin + Dasatinib; first compound 1000 µM) | relative viability (Metformin + Dasatinib; first compound 31.62 µM) | relative viability (Apatinib + Crizotinib; first compound 0.08 µM) | relative viability (Apatinib + Crizotinib; first compound 0.253 µM) | relative viability (Apatinib + Crizotinib; first compound 0.8 µM) | relative viability (Apatinib + Crizotinib; first compound 2.53 µM) | relative viability (Apatinib + Crizotinib; first compound 8 µM) |
| --- | --- | --- | --- | --- | --- | --- | --- | --- | --- | --- | --- | --- | --- | --- | --- | --- | --- | --- | --- | --- |
| NCI-H1793 | 0.761 | 0.585 | 0.507 | 0.601 | 0.475 | 1.17 | 1.03 | 0.953 | 0.761 | 0.919 | 0.38 | 0.42 | 0.342 | 0.515 | – | – | – | – | – | – |
| SW 900 | 1.06 | 0.921 | 0.822 | 0.584 | 0.605 | – | – | – | – | – | 0.844 | 0.73 | 0.825 | 0.766 | 0.989 | – | – | – | – | – |
| NCI-H1792 | – | – | – | – | – | – | 0.798 | 0.979 | 0.691 | 0.869 | – | 0.982 | 0.754 | 0.756 | 1.05 | 0.97 | 0.988 | 0.949 | 0.96 | 0.832 |
| NCI-H1623 | 0.912 | 0.826 | 0.844 | 0.802 | 0.777 | – | – | – | – | – | 0.376 | 0.511 | 0.627 | 0.478 | 0.518 | – | – | – | – | – |
| NCI-H2342 | 1.01 | 1.05 | 1.02 | 0.983 | 0.936 | – | – | – | – | – | 0.315 | 0.326 | 0.285 | 0.356 | 0.291 | – | – | – | – | – |
| NCI-H1703 | 0.37 | 0.345 | 0.31 | 0.297 | 0.37 | 0.491 | 0.728 | 0.474 | 0.512 | 0.368 | – | – | – | – | – | 0.359 | 0.464 | 0.347 | 0.194 | 0.15 |
| Calu-6 | 0.994 | 0.915 | 0.799 | 0.766 | 0.791 | 0.889 | 0.84 | 0.836 | 0.73 | 0.879 | – | – | – | – | – | 0.789 | 0.855 | 0.726 | 0.599 | 0.594 |
| EBC-1 | 0.111 | 0.0844 | 0.0979 | 0.0995 | 0.1 | 0.866 | 0.989 | 0.925 | 0.941 | 0.947 | – | – | – | – | – | 0.211 | 0.185 | 0.178 | 0.211 | 0.208 |
| IA-LM | 1.33 | 1.13 | 1.09 | 0.703 | 0.38 | – | 1.11 | 0.906 | 0.882 | 0.88 | – | – | – | – | – | 0.857 | 0.615 | 0.697 | 0.694 | 0.192 |
| HCC-44 | – | – | – | – | – | 0.782 | 0.825 | 0.931 | 0.711 | 0.813 | – | – | – | – | – | 0.807 | 0.858 | 0.779 | 0.716 | 0.705 |
| NCI-H1650 | – | 1.07 | 0.959 | 0.923 | 0.81 | – | – | – | – | – | 0.443 | 0.366 | 0.301 | 0.369 | 0.456 | 1.13 | 1.03 | 0.9 | 0.92 | 0.842 |
